Laboratory results: ChEMBL document CHEMBL1153043, “Synthesis and evaluation of 1-(benzo[b]thiophen-2-yl)ethanone analogues as novel anti-osteoporosis agents acting on BMP-2 promotor” (Bioorg Med Chem Lett, 2009)

Legend:
[1] = system: Rattus norvegicus; test: Antiosteoporotic activity in ovariectomized Sprague-Dawley rat assessed as trabecula resorption surface at 40 mg/kg/day, po for 90 days by bone histomorphometry; type: functional
[2] = system: Rattus norvegicus; test: Antiosteoporotic activity in ovariectomized Sprague-Dawley rat assessed as average osteoid width at 20 mg/kg/day, po for 90 days by bone histomorphometry; type: functional
[3] = system: Rattus norvegicus; test: Antiosteoporotic activity in ovariectomized Sprague-Dawley rat assessed as trabecula resorption surface at 20 mg/kg/day, po for 90 days by bone histomorphometry; type: functional
[4] = Enhancement of BMP-2 expression in mouse MC3T3-E1 cells assessed as upregulation rate at 4 uM; type: functional, cell-based
[5] = system: Rattus norvegicus; test: Antiosteoporotic activity in ovariectomized Sprague-Dawley rat assessed as trabecular bone volume at 40 mg/kg/day, po for 90 days by bone histomorphometry; type: functional, Trabecula
[6] = system: Rattus norvegicus; test: Antiosteoporotic activity in ovariectomized Sprague-Dawley rat assessed as trabecular bone volume at 10 mg/kg/day, po for 90 days by bone histomorphometry; type: functional, Trabecula
[7] = system: Rattus norvegicus; test: Antiosteoporotic activity in ovariectomized Sprague-Dawley rat assessed as trabecula formation surface at 40 mg/kg/day, po for 90 days by bone histomorphometry; type: functional
[8] = system: Rattus norvegicus; test: Antiosteoporotic activity in ovariectomized Sprague-Dawley rat assessed as mineral apposition rate at 40 mg/kg/day, po for 90 days by bone histomorphometry; type: functional
[9] = system: Rattus norvegicus; test: Antiosteoporotic activity in ovariectomized Sprague-Dawley rat assessed as average osteoid width at 10 mg/kg/day, po for 90 days by bone histomorphometry; type: functional
[10] = system: Rattus norvegicus; test: Antiosteoporotic activity in ovariectomized Sprague-Dawley rat assessed as trabecula resorption surface at 10 mg/kg/day, po for 90 days by bone histomorphometry; type: functional
[11] = system: Rattus norvegicus; test: Antiosteoporotic activity in ovariectomized Sprague-Dawley rat assessed as osteo cortex mineralization rate at 40 mg/kg/day, po for 90 days by bone histomorphometry; type: functional
[12] = system: Rattus norvegicus; test: Antiosteoporotic activity in ovariectomized Sprague-Dawley rat assessed as trabecular bone volume at 20 mg/kg/day, po for 90 days by bone histomorphometry; type: functional, Trabecula
[13] = system: Rattus norvegicus; test: Antiosteoporotic activity in ovariectomized Sprague-Dawley rat assessed as trabecula formation surface at 10 mg/kg/day, po for 90 days by bone histomorphometry; type: functional
[14] = system: Rattus norvegicus; test: Antiosteoporotic activity in ovariectomized Sprague-Dawley rat assessed as osteo cortex mineralization rate at 10 mg/kg/day, po for 90 days by bone histomorphometry; type: functional
[15] = system: Rattus norvegicus; test: Antiosteoporotic activity in ovariectomized Sprague-Dawley rat assessed as mineral apposition rate at 20 mg/kg/day, po for 90 days by bone histomorphometry; type: functional
[16] = system: Rattus norvegicus; test: Antiosteoporotic activity in ovariectomized Sprague-Dawley rat assessed as osteo cortex mineralization rate at 20 mg/kg/day, po for 90 days by bone histomorphometry; type: functional
[17] = system: Rattus norvegicus; test: Antiosteoporotic activity in ovariectomized Sprague-Dawley rat assessed as trabecula formation surface at 20 mg/kg/day, po for 90 days by bone histomorphometry; type: functional
[18] = system: Rattus norvegicus; test: Antiosteoporotic activity in ovariectomized Sprague-Dawley rat assessed as mineral apposition rate at 10 mg/kg/day, po for 90 days by bone histomorphometry; type: functional
[19] = system: Rattus norvegicus; test: Antiosteoporotic activity in ovariectomized Sprague-Dawley rat assessed as average osteoid width at 40 mg/kg/day, po for 90 days by bone histomorphometry; type: functional

## CC(=O)c1cc2ccccc2o1
[1]
  Activity: 5.3%
[2]
  Activity: 11.6 µm
[3]
  Activity: 7.15%
[4]
  Activity: 33.5%
[5]
  Activity: 17.5%
[6]
  Activity: 12.39%
[7]
  Activity: 6.74%
[8]
  Activity: 2.2 µm/day
[9]
  Activity: 11.2 µm
[10]
  Activity: 7.84%
[11]
  Activity: 3.3 µm/day
[12]
  Activity: 13.13%
[13]
  Activity: 7.26%
[14]
  Activity: 3.28 µm/day
[15]
  Activity: 2.34 µm/day
[16]
  Activity: 3.51 µm/day
[17]
  Activity: 6.75%
[18]
  Activity: 2.31 µm/day
[19]
  Activity: 11 µm

## CC(=O)c1cc2cccc(C(F)(F)F)c2s1
[4]
  Activity: 30.2%

## COc1cc2cc(C(C)=O)sc2cc1OC
[4]
  Activity: 37.1%

## COC(=O)c1cc2ccccc2s1
[4]
  Activity: 27.3%

## CC(=O)c1sc2ccccc2c1C
[4]
  Activity: 28%

## CC(=O)c1sc2ccc(C(F)(F)F)cc2c1C
[4]
  Activity: 16.7%

## CC(=O)c1cc2c(Cl)cccc2s1
[4]
  Activity: 27.9%

## NC(=O)c1cc2ccccc2s1
[4]
  Activity: 11.2%

## CC(=O)c1c[nH]c2ccccc12
[4]
  Activity: 22.8%

## CC(=O)c1sc2cccc(Cl)c2c1C
[4]
  Activity: 16.5%
